In patent US11584722B2, “Substituted imidazole salt compounds, preparation method thereof, pharmaceutical composition thereof and application thereof” (Xiamen Vivohealths Technology Co., Ltd., priority 2017, dated 2023):

These compounds were tested against T1, aldolase A (Homo sapiens, UniProt P04075) (assay: Activity assay at protein level: aldolase-catalyzed degradation of fructose-1,6-biphosphate, coupled triose phosphate isomerase/glycerol-3-phosphate dehydrogenase method). Conditions: test concentration of compound 100 μM, FBP 500 μM, 37° C., read-out: Inhibition rate (%) of aldolase activity.
T1 sequence (P04075 1-364): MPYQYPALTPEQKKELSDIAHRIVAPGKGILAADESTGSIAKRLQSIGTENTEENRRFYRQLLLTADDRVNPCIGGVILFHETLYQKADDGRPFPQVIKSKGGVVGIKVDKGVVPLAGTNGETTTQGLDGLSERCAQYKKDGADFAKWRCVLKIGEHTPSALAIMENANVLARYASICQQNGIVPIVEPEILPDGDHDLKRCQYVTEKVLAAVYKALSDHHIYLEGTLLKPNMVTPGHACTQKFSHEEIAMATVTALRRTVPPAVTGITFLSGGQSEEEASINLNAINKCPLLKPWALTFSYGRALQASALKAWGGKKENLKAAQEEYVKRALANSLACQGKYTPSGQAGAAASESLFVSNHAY
Assay type: biochemical
Method: The inhibition on aldolase activity of a compound was evaluated by its inhibition on the rate of aldolase-catalyzed degradation of the substrate fructose-1,6-biphosphate (FBP). Method for conjugation of triose phosphate isomerase/glycerol-3-phosphate dehydrogenase [Racker, E. (1952) J. Biol. Chem. 196, 347-351] was specifically used for biochemical activity assay (Table 3).
The specific method was as follows:
(1) About 250 ng of aldolase A was dissolved in 30 μL of water, added to the bottom of a 96-well plate of quartz, and a compound (dissolved in DMSO, not exceeding 1% of the total reaction volume) was added to the aldolase A solution, followed by shaking and mixing, and incubation for 30 min at room temperature; […]
(2) 70 μL of an enzyme reaction system (its formulation was given below) was added, and immediately put into a microplate reader (SpectraMax M5, Molecular Devices), to carry out reaction at 37° C. At the same time, the absorbance at 340 nm was measured every 30 s, and a total of 61 absorbance values were obtained for each well. The absorbance value linearly changed with time, and the slope was the enzyme activity of aldolase in the well. The specific value was calculated by SoftMax Pro 5.4.1; […]
a. enzyme reaction buffer (50 mM TEA-HCl, pH 7.4, 10 mM EDTA) […]
d. triose phosphate isomerase (about 20 U) e. glycerol-3-phosphate dehydrogenase (about 2 U)
(3) Two parallel experiments were set for each group, with DMSO having a final concentration of 1% as the blank control, and the final concentration of compound being 100 μM.
`CCCCCCCCCCCCCCCCn1c(C)[n+](Cc2c(F)cccc2Cl)c2ccccc21` [IIA-1] gave an inhibition at 100 µM of 49.9%. `CCn1cc[n+](Cc2c(Cl)cccc2Cl)c1C` [IA-7] gave an inhibition at 100 µM of 88.4%. Work on `CCCn1cc[n+](Cc2cc(F)ccc2OC)c1C` [IA-10] yielded an inhibition at 100 µM of 0.06%. In the case of `Cc1n(C(C)C)cc[n+]1Cc1c(Cl)cccc1Cl` [IA-14], the inhibition at 100 µM is reported as 5.06%. `CCn1cc[n+](Cc2cc(F)ccc2OC)c1C` [IA-6] gave an inhibition at 100 µM of 83.4%.
